This is an account of results in patent US10328054B2, “Substituted pyrrolidines as mGluR5 antagonists” (Hua Medicine (Shanghai) Ltd., priority 2015, dated 2019).

The test concerns the target recombinant rat mGluR5 (Rattus norvegicus (Rat), UniProt P31424). The test can be described thus: Functional calcium flux assay (FLIPR). The test is classed as cell-based. The settings on record: HEK293 cells stably expressing recombinant rat mGluR5; inhibition of glutamate-evoked [Ca2+]i increase, 15 min incubation of test compound. How it is done:
For functional assays, HEK293 cells stably expressing recombinant rat mGluR5 were seeded in 384-well plates and dye loaded using Fluo-8. Cells were then washed to remove the un-incorporated dye. Antagonist evaluation was performed following a 15 min incubation of the test compound followed by the addition of submaximal concentration of glutamate. Intracellular calcium ([Ca^2+]i) measurements were performed using a fluorometric imaging plate reader (FLIPR, Molecular Devices). The glutamate-evoked increase in [Ca^2+]i in the presence of the test compounds was compared to the response to glutamate alone (the positive control). Antagonist inhibition curves were fitted with a 4-parameter logistic equation giving IC50 values, and Hill coefficients using an iterative nonlinear curve fitting algorithm.
The tables below provide IC50 data in this assay. In the activity column, A=IC50>1,000 and <5,000 nM; B=IC50>500 and <1,000 nM and C=IC50<500 nM.

A word on the IC50: it is the point on the concentration scale where inhibition reaches its midpoint.

Sequence of recombinant rat mGluR5 (P31424 21-1203): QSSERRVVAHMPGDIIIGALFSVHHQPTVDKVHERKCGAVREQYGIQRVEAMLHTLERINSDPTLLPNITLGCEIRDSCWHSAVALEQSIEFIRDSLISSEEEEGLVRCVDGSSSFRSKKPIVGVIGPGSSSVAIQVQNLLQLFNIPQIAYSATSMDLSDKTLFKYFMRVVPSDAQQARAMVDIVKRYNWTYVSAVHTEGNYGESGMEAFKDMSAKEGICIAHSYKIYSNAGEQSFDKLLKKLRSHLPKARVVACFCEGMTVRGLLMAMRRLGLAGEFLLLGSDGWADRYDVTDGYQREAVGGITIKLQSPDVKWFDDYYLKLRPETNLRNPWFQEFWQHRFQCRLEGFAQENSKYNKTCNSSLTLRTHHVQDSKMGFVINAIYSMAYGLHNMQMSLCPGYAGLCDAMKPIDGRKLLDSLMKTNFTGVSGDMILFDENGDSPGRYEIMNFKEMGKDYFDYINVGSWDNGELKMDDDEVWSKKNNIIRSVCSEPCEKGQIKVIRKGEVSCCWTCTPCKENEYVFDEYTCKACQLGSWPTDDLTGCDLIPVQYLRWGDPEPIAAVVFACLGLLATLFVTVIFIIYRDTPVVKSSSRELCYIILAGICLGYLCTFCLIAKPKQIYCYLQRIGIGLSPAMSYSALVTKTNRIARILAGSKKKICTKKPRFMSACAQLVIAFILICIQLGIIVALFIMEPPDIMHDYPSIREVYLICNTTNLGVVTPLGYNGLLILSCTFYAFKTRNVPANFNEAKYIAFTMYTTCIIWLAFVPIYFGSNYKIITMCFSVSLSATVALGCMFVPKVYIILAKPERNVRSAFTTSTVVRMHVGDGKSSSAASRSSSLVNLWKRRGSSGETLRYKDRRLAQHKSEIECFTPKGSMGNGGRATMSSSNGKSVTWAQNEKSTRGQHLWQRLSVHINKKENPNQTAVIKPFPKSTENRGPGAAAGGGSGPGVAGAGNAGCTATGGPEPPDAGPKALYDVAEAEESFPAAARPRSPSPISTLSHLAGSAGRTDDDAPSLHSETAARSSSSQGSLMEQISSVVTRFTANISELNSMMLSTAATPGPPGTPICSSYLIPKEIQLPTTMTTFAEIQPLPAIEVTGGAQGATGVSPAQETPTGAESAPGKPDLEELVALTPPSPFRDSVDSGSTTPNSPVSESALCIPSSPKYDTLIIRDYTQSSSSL

Regarding `N#Cc1cc(F)cc(N2CC3CC3(C#Cc3ccccn3)C2)c1` (stereo not drawn) [Example Compound 1, 3-fluoro-S-(1-(pyridin-2-ylethynyl)-3-azabicyclo[3.1.0]hexan-3-yl) benzonitrile], the half-inhibitory concentration (IC50) is under 500 nM.
Turning to `Fc1ccc(N2CC3CC3(C#Cc3ccccn3)C2)cc1` (stereo not drawn) [Example Compound 2, 3-(4-fluorophenyl)-1-(pyridin-2-ylethynyl)-3-azabicyclo[3.1.0]hexane], the IC50 is under 500 nM.
The value for `FC(F)(F)Oc1ccc(N2CC3CC3(C#Cc3ccccn3)C2)cc1` (stereo not drawn) [Example Compound 3, 1-(pyridin-2-ylethynyl)-3-(4-(trifluoromethoxy)phenyl)-3-azabicyclo[3.1.0]hexane] was 1000 to 5000 nM; that for `Fc1cncc(N2CC3CC3(C#Cc3ccccn3)C2)c1` (stereo not drawn) [Example Compound 4] was under 500 nM; that for `O=S(=O)(c1ccccc1)N1CC2CC2(C#Cc2ccccn2)C1` (stereo not drawn) [Example Compound 5, 3-(phenylsulfonyl)-1-(pyridin-2-ylethynyl)-3-azabicyclo[3.1.0]hexane] was under 500 nM.
Regarding `Fc1ccc(N2CC3CC3(C#Cc3ccccn3)C2)nc1` (stereo not drawn) [Example Compound 6, 3-(5-fluoropyridin-2-yl)-1-(pyridin-2-ylethynyl)-3-azabicyclo[3.1.0]hexane], the half-maximal inhibitory concentration (IC50) is under 500 nM.
Turning to `N#Cc1cc(F)cc(N2CC3CC3(C#Cc3cnccn3)C2)c1` (stereo not drawn) [Example Compound 7, 3-fluoro-5-(1-(pyrazin-2-ylethynyl)-3-azabicyclo[3.1.0]hexan-3-yl) benzonitrile], the concentration for half-maximal inhibition (IC50) was under 500 nM.
Take `N#Cc1cc(F)cc(N2CC3CC3(C#Cc3ncccn3)C2)c1` (stereo not drawn) [Example Compound 8, 3-fluoro-5-(1-(pyrimidin-2-ylethynyl)-3-azabicyclo[3.1.0]hexan-3-yl) benzonitrile]: the concentration for half-maximal inhibition (IC50) is under 500 nM.
On to `Cc1cccnc1C#CC12CC1CN(c1cc(F)cc(C#N)c1)C2` (stereo not drawn) [Example Compound 9], for which the concentration for half-maximal inhibition (IC50) lay in the range of 1000 to 5000 nM.
Regarding `C(#CC12CC1CN(c1ccccc1)C2)c1ccccn1` (stereo not drawn) [Example Compound 10, 3-phenyl-1-(pyridin-2-ylethynyl)-3-azabicyclo[3.1.0]hexane], the IC50 was under 500 nM.
Turning to `N#Cc1cc(F)cc(N2CC3CC3(C#Cc3cccnn3)C2)c1` (stereo not drawn) [Example Compound 11, 3-fluoro-5-(1-(pyridazin-3-ylethynyl)-3-azabicyclo[3.1.0]hexan-3-yl)benzonitrile], the IC50 was under 500 nM.
The value for `N#Cc1cc(F)cc(N2CC3CC3(C#Cc3ccnc(Cl)c3)C2)c1` (stereo not drawn) [Example Compound 12, 3-(1-((2-chloropyridin-4-yl)ethynyl)-3-azabicyclo[3.1.0]hexan-3-yl)-S-fluorobenzonitrile] was under 500 nM; that for `Cc1cccc(C#CC23CC2CN(c2cc(F)cc(C#N)c2)C3)n1` (stereo not drawn) [Example Compound 13, 3-fluoro-5-(1-((6-methylpyridin-2-yl)ethynyl)-3-azabicyclo[3.1.0]hexan-3-yl) benzonitrile] was under 500 nM; that for `COc1cccc(C#CC23CC2CN(c2cc(F)cc(C#N)c2)C3)n1` (stereo not drawn) [Example Compound 15, 3-fluoro-5-(1-((6-methoxypyridin-2-yl)ethynyl)-3-azabicyclo[3.1.0]hexan-3-yl) benzonitrile] was under 500 nM.
For the compound `Fc1ccccc1N1CC2CC2(C#Cc2ccccn2)C1` (stereo not drawn) [Example Compound 16, 3-(2-fluorophenyl)-1-(pyridin-2-ylethynyl)-3-azabicyclo[3.1.0]hexane], the 50% inhibitory concentration (IC50) was under 500 nM.
Take `Clc1ccccc1N1CC2CC2(C#Cc2ccccn2)C1` (stereo not drawn) [Example Compound 17, 3-(2-chlorophenyl)-1-(pyridin-2-ylethynyl)-3-azabicyclo[3.1.0]hexane]: the IC50 was under 500 nM.
In the case of `Clc1cccc(N2CC3CC3(C#Cc3ccccn3)C2)c1` (stereo not drawn) [Example Compound 18, 3-(3-chlorophenyl)-1-(pyridin-2-ylethynyl)-3-azabicyclo[3.1.0]hexane], the IC50 is under 500 nM.
In the case of `Clc1ccc(N2CC3CC3(C#Cc3ccccn3)C2)cc1` (stereo not drawn) [Example Compound 19, 3-(4-chlorophenyl)-1-(pyridin-2-ylethynyl)-3-azabicyclo[3.1.0]hexane], the IC50 is 500 to 1000 nM.
With `Fc1cc(Cl)cc(N2CC3CC3(C#Cc3ccccn3)C2)c1` (stereo not drawn) [Example Compound 20, 3-(3-chloro-5-fluorophenyl)-1-(pyridin-2-ylethynyl)-3-azabicyclo[3.1.0]hexane] the figure was under 500 nM; with `Fc1cc(Cl)ccc1N1CC2CC2(C#Cc2ccccn2)C1` (stereo not drawn) [Example Compound 21, 3-(4-chloro-2-fluorophenyl)-1-(pyridin-2-ylethynyl)-3-azabicyclo[3.1.0]hexane], 500 to 1000 nM.
In the case of `Fc1cc(N2CC3CC3(C#Cc3ccccn3)C2)ccc1Cl` (stereo not drawn) [Example Compound 22, 3-(4-chloro-3-fluorophenyl)-1-(pyridin-2-ylethynyl)-3-azabicyclo[3.1.0]hexane], the concentration for half-maximal inhibition (IC50) is 500 to 1000 nM.
On to `N#Cc1ccnc(N2CC3CC3(C#Cc3ccccn3)C2)c1` (stereo not drawn) [Example Compound 23, 2-(1-(pyridin-2-ylethynyl)-3-azabicyclo[3.1.0]hexan-3-yl)isonicotinonitrile], for which the half-inhibitory concentration (IC50) is under 500 nM.
With `C(#CC12CC1CN(c1ccc3[nH]ccc3n1)C2)c1ccccn1` (stereo not drawn) [Example Compound 24, 5-(1-(pyridin-2-ylethynyl)-3-azabicyclo[3.1.0]hexan-3-yl)-1H-pyrrolo[3,2-b]pyridine], the half-maximal inhibitory concentration (IC50) was in the range of 1000 to 5000 nM.
As to `C(#CC12CC1CN(c1ccc3[nH]cnc3c1)C2)c1ccccn1` (stereo not drawn) [Example Compound 25, 5-(1-(pyridin-2-ylethynyl)-3-azabicyclo[3.1.0]hexan-3-yl)-1H-benzo[d]imidazole], the IC50 is 1000 to 5000 nM.
The value for `O=C(c1cccc(Cl)c1)N1CC2CC2(C#Cc2ccccn2)C1` (stereo not drawn) [Example Compound 26, (3-chlorophenyl)(1-(pyridin-2-ylethynyl)-3-azabicyclo[3.1.0]hexan-3-yl)methanone] was under 500 nM.
With `O=C(c1ccccn1)N1CC2CC2(C#Cc2ccccn2)C1` (stereo not drawn) [Example Compound 27, pyridin-2-yl(1-(pyridin-2-ylethynyl)-3-azabicyclo[3.1.0]hexan-3-yl)methanone] the figure was under 500 nM.
`O=C(c1ccccc1)N1CC2CC2(C#Cc2ccccn2)C1` (stereo not drawn) [Example Compound 28, phenyl(1-(pyridin-2-ylethynyl) 3-azabicyclo[3.1.0]hexan-3-yl)methanone]: the IC50 is under 500 nM.
With `O=C(Cc1ccccc1)N1CC2CC2(C#Cc2ccccn2)C1` (stereo not drawn) [Example Compound 29, 2-phenyl-1-(1-(pyridin-2-ylethynyl)-3-azabicyclo[3.1.0]hexan-3-yl)ethanone], the IC50 is under 500 nM.
The value for `O=C(c1ccccc1Cl)N1CC2CC2(C#Cc2ccccn2)C1` (stereo not drawn) [Example Compound 30, (2-chlorophenyl) (1-(pyridin-2-ylethynyl)-3-azabicyclo[3.1.0]hexan-3-yl)methanone] was under 500 nM; that for `CCCCC(=O)N1CC2CC2(C#Cc2ccccn2)C1` (stereo not drawn) [Example Compound 31, 1-(1-(pyridin-2-ylethynyl)-3-azabicyclo[3.1.0]hexan-3-yl)pentan-1-one] was under 500 nM.
Consider `O=C(CCc1ccccc1)N1CC2CC2(C#Cc2ccccn2)C1` (stereo not drawn) [Example Compound 32, 3-phenyl-1-(1-(pyridin-2-ylethynyl)-3-azabicyclo[3.1.0]hexan-3-yl)propan-1-one], for which the IC50 was under 500 nM.
With `O=C(c1ccc(Cl)cc1)N1CC2CC2(C#Cc2ccccn2)C1` (stereo not drawn) [Example Compound 33, (4-chlorophenyl)(1-(pyridin-2-ylethynyl)-3-azabicyclo[3.1.0]hexan-3-yl)methanone], the half-inhibitory concentration (IC50) is under 500 nM.
The value for `O=S(=O)(c1cccc(Cl)c1)N1CC2CC2(C#Cc2ccccn2)C1` (stereo not drawn) [Example Compound 34, 3-((3-chlorophenyl)sulfonyl)-1-(pyridin-2-ylethynyl)-3-azabicyclo[3.1.0]hexane] was under 500 nM; that for `O=S(=O)(c1ccc(Cl)cc1)N1CC2CC2(C#Cc2ccccn2)C1` (stereo not drawn) [Example Compound 35, 3-((4-chlorophenyl)sulfonyl)-1-(pyridin-2-ylethynyl)-3-azabicyclo[3.1.0]hexane] was under 500 nM.
With `O=S(=O)(c1ccccc1Cl)N1CC2CC2(C#Cc2ccccn2)C1` (stereo not drawn) [Example Compound 36, 3-((2-chlorophenyl)sulfonyl)-1-(pyridin-2-ylethynyl)-3-azabicyclo[3.1.0]hexane] the figure was under 500 nM.
In the case of `Cc1ccc(S(=O)(=O)N2CC3CC3(C#Cc3ccccn3)C2)cc1` (stereo not drawn) [Example Compound 37, 1-(pyridin-2-ylethynyl)-3-tosyl-3-azabicyclo[3.1.0]hexane], the IC50 is under 500 nM.
The value for `N#Cc1cccc(N2CC3CC3(C#Cc3ccccn3)C2)n1` (stereo not drawn) [Example Compound 38, 6-(1-(pyridin-2-ylethynyl)-3-azabicyclo[3.1.0]hexan-3-yl)picolinonitrile] was under 500 nM; that for `Cc1nc(C#CC23CC2CN(c2cc(F)cc(C#N)c2)C3)cs1` (stereo not drawn) [Example Compound 39, 3-fluoro-5-(1-((2-methylthiazol-4-yl)ethynyl)-3-azabicyclo[3.1.0]hexan-3-yl)benzonitrile] was under 500 nM.
On to `N#Cc1cccc(N2CC3CC3(C#Cc3ccccn3)C2)c1` (stereo not drawn) [Example Compound 40, 3-(1-(pyridin-2-ylethynyl)-3-azabicyclo[3.1.0]hexan-3-yl)benzonitrile], for which the half-maximal inhibitory concentration (IC50) is under 500 nM.
